Read-outs that look alike come from different tables or passages of the source. Non-standard residues stand in square brackets, D forms with d. Residues, ends and D or L forms follow the SMILES beside them. 1Nal = N[C@@H](Cc1cccc2ccccc12)C(=O)O; 2Nal = N[C@@H](Cc1ccc2ccccc2c1)C(=O)O; β3hI = CC[C@H](C)[C@H](N)CC(=O)O; β3hF = N[C@H](CC(=O)O)Cc1ccccc1; Nle = CCCC[C@H](N)C(=O)O; Aib = CC(C)(N)C(=O)O; βAla = NCCC(=O)O

In this test the target is T1, human PTH-1 receptor (Homo sapiens, UniProt Q03431).
T1 construct: expressed in transfected cells; host or cells: HEK-293
T1 sequence (Q03431 27-593): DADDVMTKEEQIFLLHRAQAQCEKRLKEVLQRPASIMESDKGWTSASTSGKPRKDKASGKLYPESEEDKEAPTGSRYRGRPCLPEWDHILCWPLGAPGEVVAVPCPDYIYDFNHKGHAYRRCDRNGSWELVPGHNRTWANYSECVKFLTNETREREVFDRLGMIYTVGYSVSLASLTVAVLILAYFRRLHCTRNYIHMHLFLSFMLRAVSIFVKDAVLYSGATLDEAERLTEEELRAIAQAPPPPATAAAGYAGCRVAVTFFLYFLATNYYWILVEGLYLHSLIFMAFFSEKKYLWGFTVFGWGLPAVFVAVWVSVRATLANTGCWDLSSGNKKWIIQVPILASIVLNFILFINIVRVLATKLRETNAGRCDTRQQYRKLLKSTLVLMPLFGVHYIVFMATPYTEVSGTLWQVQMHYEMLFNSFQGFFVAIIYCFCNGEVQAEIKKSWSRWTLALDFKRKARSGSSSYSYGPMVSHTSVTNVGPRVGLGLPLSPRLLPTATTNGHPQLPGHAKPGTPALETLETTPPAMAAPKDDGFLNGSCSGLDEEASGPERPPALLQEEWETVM
Kind of test: Reporter gene assay (CRE-luciferase) for agonist activity in transiently transfected HEK-293 cells. In kind it is cell-based. The settings on record: for hPTHR-2/hPTHR-1: selectivity for hPTH-1 receptor over hPTH-2 receptor. The procedure: Agonist activity of compounds on the human PTH-1 receptor was determined in a reporter gene assay by transiently transfecting HEK-293 cells with plasmids encoding human PTH-1 receptor under control of the SV40 promoter and a luciferase reporter gene under control of cAMP responsive elements (CRE). See Himmler et al, J. Recept. Res. 13 (1993) 79-94, for further guidance on this assay. Transfected cells were exposed to serial dilutions of compounds for 4-5 hours followed by lysis of cells, determination of luciferase activity, and determination of compound efficacies and EC50 values through non-linear regression.
PTH (1-34) was used as an internal control in each experiment and compounds were tested in at least three independent experiments. To determine selectivity, compounds were tested in luciferase-based transcriptional reporter gene assays expressing the human PTH-2 receptor.
Background: Reporter assays use an easily measured gene product as a stand-in for the process of interest.

Where [1] appears, read: Table 3, HEK-293 cells, CRE-luciferase, 4-5 hours exposure, read-out: hPTHR-1 EC50.

Broadly, the EC50 is the concentration at which the effect is half-maximal. Molecule `CCCC[C@H](NC(=O)[C@H](CC(C)C)NC(=O)[C@H](CCC(N)=O)NC(=O)[C@@H](NC(=O)[C@H](CCC(=O)O)NC(=O)[C@H](CO)NC(=O)[C@@H](NC(=O)C(C)(C)N)C(C)C)[C@@H](C)CC)C(=O)N[C@@H](Cc1c[nH]cn1)C(=O)N[C@@H](CC(N)=O)C(=O)N[C@@H](CC(C)C)C(=O)NCC(=O)N[C@@H](CCCCN)C(=O)N[C@@H](Cc1c[nH]cn1)C(=O)N[C@@H](CC(C)C)C(=O)N[C@@H](CC(N)=O)C(=O)N[C@@H](CO)C(=O)N[C@H](CC(=O)N[C@@H](CCC(=O)O)C(=O)N[C@@H](CCCNC(=N)N)C(=O)N[C@H](C(=O)N[C@@H](CCC(=O)O)C(=O)N[C@@H](Cc1cccc2ccccc12)C(=O)N[C@@H](CC(C)C)C(=O)N[C@@H](CCCNC(=N)N)C(=O)N[C@@H](CCCCN)C(=O)N[C@@H](CC(C)C)C(=O)N[C@@H](CC(C)C)C(=O)N[C@@H](CCC(N)=O)C(=O)N[C@@H](CC(=O)O)C(=O)N[C@H](C(=O)N[C@@H](Cc1c[nH]cn1)C(=O)N[C@@H](CC(N)=O)C(=O)N[C@@H](Cc1ccccc1)C(N)=O)C(C)C)C(C)C)Cc1ccccc1` [SEQ ID NO: 42, [Aib^1, Nle^8, β-hPhe^18,1-Nal^23, Leu^27 hPTH (1-34)-NH2] (H-[Aib]VSEIQL[Nle]HNLGKHLNS[β3hF]ERVE[1Nal]LRKLLQDVHNF-NH2; N-terminus assumed) showed an EC50 of 0.06 nM. Moreover, the hPTHR-2/hPTHR-1 (Table 3, ratio of EC50 values) worked out at 88.
Consider `CCCC[C@H](NC(=O)[C@H](CO)NC(=O)[C@H](CC(N)=O)NC(=O)[C@H](CC(C)C)NC(=O)[C@H](Cc1c[nH]cn1)NC(=O)[C@H](CCCCN)NC(=O)CNC(=O)[C@H](CC(C)C)NC(=O)[C@H](CC(N)=O)NC(=O)[C@H](Cc1c[nH]cn1)NC(=O)[C@H](CCCC)NC(=O)[C@H](CC(C)C)NC(=O)[C@H](CCC(N)=O)NC(=O)[C@@H](NC(=O)[C@H](CCC(=O)O)NC(=O)[C@H](CO)NC(=O)[C@@H](NC(=O)[C@@H](N)CO)C(C)C)[C@@H](C)CC)C(=O)NCCC(=O)N[C@@H](CCCNC(=N)N)C(=O)N[C@H](C(=O)N[C@@H](CCC(=O)O)C(=O)N[C@@H](Cc1cccc2ccccc12)C(=O)N[C@@H](CC(C)C)C(=O)N[C@@H](CCCNC(=N)N)C(=O)N[C@@H](CCCCN)C(=O)N[C@@H](CCCCN)C(=O)N[C@@H](CC(C)C)C(=O)N[C@@H](CCC(N)=O)C(=O)N[C@@H](CC(=O)O)C(=O)N[C@H](C(=O)N[C@@H](Cc1c[nH]cn1)C(=O)N[C@@H](CC(N)=O)C(=O)N[C@@H](Cc1ccccc1)C(N)=O)C(C)C)C(C)C` [SEQ ID NO: 7, [Nle^8,18, β-Ala^19,1-Nal^23] hPTH (1-34)-NH2] (H-SVSEIQL[Nle]HNLGKHLNS[Nle][βAla]RVE[1Nal]LRKKLQDVHNF-NH2), for which the EC50 under setting [1] is 0.21 nM. Further, the hPTHR-2/hPTHR-1 (Table 3, ratio of EC50 values) amounted to 52.
Take `CCCC[C@H](NC(=O)[C@H](CC(C)C)NC(=O)[C@H](CCC(N)=O)NC(=O)[C@@H](NC(=O)[C@H](CCC(=O)O)NC(=O)[C@H](CO)NC(=O)[C@@H](NC(=O)C(C)(C)N)C(C)C)[C@@H](C)CC)C(=O)N[C@@H](Cc1c[nH]cn1)C(=O)N[C@@H](CO)C(=O)N[C@@H](CC(C)C)C(=O)NCC(=O)N[C@@H](CCCCN)C(=O)N[C@@H](Cc1c[nH]cn1)C(=O)N[C@@H](CC(C)C)C(=O)N[C@@H](CCCCN)C(=O)N[C@@H](CO)C(=O)N[C@H](CC(=O)N[C@@H](CCC(=O)O)C(=O)N[C@@H](CCCNC(=N)N)C(=O)N[C@H](C(=O)N[C@@H](CCC(=O)O)C(=O)N[C@@H](Cc1cccc2ccccc12)C(=O)N[C@@H](CC(C)C)C(=O)N[C@@H](CCCNC(=N)N)C(=O)N[C@@H](CCCCN)C(=O)N[C@@H](CC(C)C)C(=O)N[C@@H](CC(C)C)C(=O)N[C@@H](CCC(N)=O)C(=O)N[C@@H](CCCNC(=N)N)C(=O)N[C@H](C(=O)N[C@@H](Cc1c[nH]cn1)C(=O)N[C@@H](CCC(=O)O)C(=O)N[C@@H](CCC(=O)O)C(N)=O)C(C)C)C(C)C)[C@@H](C)CC` [SEQ ID NO: 4, [Aib^1, Nle^8, Ser^10, Lys^16, β-hIle^18,1-Nal^23, Leu^27, Arg^30, Glu^33, Glu^34] hPTH (1-34)-NH2] (H-[Aib]VSEIQL[Nle]HSLGKHLKS[β3hI]ERVE[1Nal]LRKLLQRVHEE-NH2): the EC50 was 0.04 nM. For the setting “Table 3, ratio of EC50 values”, the hPTHR-2/hPTHR-1 turned out to be 110.
In the case of `CCCC[C@H](NC(=O)[C@H](CC(C)C)NC(=O)[C@H](CCC(N)=O)NC(=O)[C@@H](NC(=O)[C@H](CCC(=O)O)NC(=O)[C@H](CO)NC(=O)[C@@H](NC(=O)[C@@H](N)CO)C(C)C)[C@@H](C)CC)C(=O)N[C@@H](Cc1c[nH]cn1)C(=O)N[C@@H](CC(N)=O)C(=O)N[C@@H](CC(C)C)C(=O)NCC(=O)NC(C)(C)C(=O)N[C@@H](Cc1c[nH]cn1)C(=O)N[C@@H](CC(C)C)C(=O)N[C@@H](CC(N)=O)C(=O)N[C@@H](CO)C(=O)N[C@H](CC(=O)N[C@@H](CCC(=O)O)C(=O)N[C@@H](CCCNC(=N)N)C(=O)N[C@H](C(=O)N[C@@H](CCC(=O)O)C(=O)N[C@@H](Cc1cccc2ccccc12)C(=O)N[C@@H](CC(C)C)C(=O)N[C@@H](CCCNC(=N)N)C(=O)N[C@@H](CCCCN)C(=O)N[C@@H](CC(C)C)C(=O)N[C@@H](CC(C)C)C(=O)N[C@@H](CCC(N)=O)C(=O)N[C@@H](CC(=O)O)C(=O)N[C@H](C(=O)N[C@@H](Cc1c[nH]cn1)C(=O)N[C@@H](CC(N)=O)C(=O)N[C@@H](Cc1ccccc1)C(N)=O)C(C)C)C(C)C)[C@@H](C)CC` [SEQ ID NO: 33, [Nle^8, Aib^13, β-hIle^18,1-Nal^23, Leu^27] hPTH (1-34)-NH2] (H-SVSEIQL[Nle]HNLG[Aib]HLNS[β3hI]ERVE[1Nal]LRKLLQDVHNF-NH2), the EC50 came to 0.14 nM. The hPTHR-2/hPTHR-1 (Table 3, ratio of EC50 values) is listed as 481.
Take `CCCC[C@H](NC(=O)[C@H](CC(C)C)NC(=O)[C@H](CCC(N)=O)NC(=O)[C@@H](NC(=O)[C@H](CCC(=O)O)NC(=O)[C@H](CO)NC(=O)[C@@H](NC(=O)[C@@H](N)CO)C(C)C)[C@@H](C)CC)C(=O)N[C@@H](Cc1c[nH]cn1)C(=O)N[C@@H](CC(N)=O)C(=O)N[C@@H](CC(C)C)C(=O)NCC(=O)N[C@@H](CCCCN)C(=O)N[C@@H](Cc1c[nH]cn1)C(=O)N[C@@H](CC(C)C)C(=O)N[C@@H](CC(N)=O)C(=O)N[C@@H](CO)C(=O)N[C@H](CC(=O)N[C@@H](CCC(=O)O)C(=O)N[C@@H](CCCNC(=N)N)C(=O)N[C@H](C(=O)N[C@@H](CCC(=O)O)C(=O)N[C@@H](Cc1ccc2ccccc2c1)C(=O)N[C@@H](CC(C)C)C(=O)N[C@@H](CCCNC(=N)N)C(=O)N[C@@H](CCCCN)C(=O)N[C@@H](CCCCN)C(=O)N[C@@H](CC(C)C)C(=O)N[C@@H](CCC(N)=O)C(=O)N[C@@H](CC(=O)O)C(=O)N[C@H](C(=O)N[C@@H](Cc1c[nH]cn1)C(=O)N[C@@H](CC(N)=O)C(=O)N[C@@H](Cc1ccccc1)C(N)=O)C(C)C)C(C)C)[C@@H](C)CC` [SEQ ID NO: 53, [Nle^8, β-hIle^18,2-Nal^23] hPTH (1-34)-NH2] (H-SVSEIQL[Nle]HNLGKHLNS[β3hI]ERVE[2Nal]LRKKLQDVHNF-NH2): the EC50 (Table 4 comparison data, HEK-293 cells, CRE-luciferase, read-out: hPTHR-1 EC50) is 0.25 nM. The “Selectivity hPTHR-2/hPTHR-1” value (Table 4 comparison data, ratio of EC50 values) was determined as 170.
`CCCC[C@H](NC(=O)CCNC(=O)[C@H](CC(N)=O)NC(=O)[C@H](CC(C)C)NC(=O)[C@H](Cc1c[nH]cn1)NC(=O)[C@H](CCCCN)NC(=O)CNC(=O)[C@H](CC(C)C)NC(=O)[C@H](CC(N)=O)NC(=O)[C@H](Cc1c[nH]cn1)NC(=O)[C@H](CCCC)NC(=O)[C@H](CC(C)C)NC(=O)[C@H](CCC(N)=O)NC(=O)[C@@H](NC(=O)[C@H](CCC(=O)O)NC(=O)[C@H](CO)NC(=O)[C@@H](NC(=O)[C@H](C)N)C(C)C)[C@@H](C)CC)C(=O)N[C@@H](CCC(=O)O)C(=O)N[C@@H](CCCNC(=N)N)C(=O)N[C@H](C(=O)N[C@@H](CCC(=O)O)C(=O)N[C@@H](Cc1ccc2ccccc2c1)C(=O)N[C@@H](CC(C)C)C(=O)N[C@@H](CCCNC(=N)N)C(=O)N[C@@H](CCCCN)C(=O)N[C@@H](CCCCN)C(=O)N[C@@H](CC(C)C)C(=O)N[C@@H](CCC(N)=O)C(=O)N[C@@H](CC(=O)O)C(=O)N[C@H](C(=O)N[C@@H](Cc1c[nH]cn1)C(=O)N[C@@H](CC(N)=O)C(=O)N[C@@H](Cc1ccccc1)C(N)=O)C(C)C)C(C)C` [SEQ ID NO: 12, [Ala^1, Nle^8,18, β-Ala^17,2-Nal^23] hPTH (1-34)-NH2] (H-AVSEIQL[Nle]HNLGKHLN[βAla][Nle]ERVE[2Nal]LRKKLQDVHNF-NH2): the EC50 under setting [1] was determined as 0.22 nM. Besides, where the note is “Table 3, ratio of EC50 values”, the hPTHR-2/hPTHR-1 worked out at 430.

For the origin of these results see US20110195900A1, “PEPTIDIC PTH RECEPTOR AGONISTS” (FERRING B.V., priority 2008, published 2011).
